The results in this text go back to ChEMBL document CHEMBL1122476 (J Med Chem, 1983).

The assay has as its target Glutamate receptor ionotropic, AMPA (Rattus norvegicus, UniProt P19490+P19491+P19492+P19493). Description: Tested for inhibition of Specific DL-[H]Ionotropic glutamate receptor AMPA binding to rat brain membranes. It counts as cell membranes, Membrane.

Each structure is given as a SMILES string. pIC50: −log10 of the molar value.

Compound `COc1noc(C)c1CC(N)C(=O)O` (stereo unspecified) showed a negative-log IC50 (pIC50) below 4.00.

A word on the pIC50: it is the IC50 on a negative log10 scale, so that one unit is a factor of ten. A higher pIC50 goes with a small IC50.
